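Step 1: Grow cells in 96-well plates. Step 2: Expose to compound for 48 hours at 5 concentrations. Step 3: Interpolate endpoints linearly; if unreached, use highest concentration. TGI: concentration producing complete growth inhibition.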
Experiments:
Test in all cases: NCI anticancer screen, dose series, 48 h
[1] = tested on: 786-0 renal
[2] = tested on: NCI-H226 lung
[3] = tested on: PC-3 prostate
[4] = tested on: HCT-116 colon
[5] = tested on: NCI-H460 lung
[6] = tested on: NCI-H23 lung
[7] = tested on: LOX IMVI melanoma
[8] = tested on: NCI-H522 lung
[9] = tested on: EKVX NSCLC
[10] = tested on: A549 NSCLC
[11] = tested on: SN12C renal
[12] = tested on: BT-549 breast
[13] = tested on: COLO 205 colon
[14] = tested on: MCF7 breast
[15] = tested on: ACHN renal
[16] = tested on: M14 melanoma
[17] = tested on: HOP-62 NSCLC
[18] = tested on: MALME-3M melanoma
[19] = tested on: HT29 colon
[20] = tested on: OVCAR-4 ovarian
[21] = tested on: SNB-75 CNS
[22] = tested on: MDA-MB-231 breast
[23] = tested on: SF-539 CNS
[24] = tested on: UACC-62 melanoma
[25] = tested on: MDA-N
[26] = tested on: HCT-15 colon
[27] = tested on: SW-620 colon
[28] = tested on: RPMI-8226 leukemia
[29] = tested on: OVCAR-3 ovarian
[30] = tested on: MDA-MB-435
[31] = tested on: A498 renal
[32] = tested on: HS 578T breast
[33] = tested on: SR leukemia
[34] = tested on: K-562 leukemia
[35] = tested on: U251 CNS
[36] = tested on: DU-145 prostate
[37] = tested on: HOP-92 NSCLC
[38] = tested on: SNB-19 CNS
[39] = tested on: NCI/ADR-RES ovarian
[40] = tested on: IGROV1 ovarian
[41] = tested on: KM12 colon
[42] = tested on: SK-OV-3 ovarian
[43] = tested on: T-47D breast
[44] = tested on: TK-10 renal
[45] = tested on: OVCAR-8 ovarian
[46] = tested on: UACC-257 melanoma
[47] = tested on: SF-295 CNS
[48] = tested on: OVCAR-5 ovarian
[49] = tested on: RXF 393 renal
[50] = tested on: HL-60(TB) leukemia
[51] = tested on: SK-MEL-28 melanoma
[52] = tested on: SK-MEL-2 melanoma
[53] = tested on: CCRF-CEM leukemia
[54] = tested on: MOLT-4 leukemia
[55] = tested on: SK-MEL-5 melanoma
[56] = tested on: CAKI-1 renal
[57] = tested on: UO-31 renal
[58] = tested on: SF-268 CNS
[59] = tested on: HCC-2998 colon
[60] = tested on: M19-MEL melanoma
[61] = tested on: DLD-1 colon
[62] = tested on: DMS 114 small cell lung
[63] = tested on: LXFL 529 NSCLC
[64] = tested on: DMS 273 small cell lung

SMILES: COc1cccc2cc(C(=O)Nc3ccccc3)c(=N)oc12
- TGI [1]: > 100 µM
- TGI [2]: > 100 µM
- TGI [3]: > 100 µM
- TGI [4]: > 100 µM
- TGI [5]: > 100 µM
- TGI [6]: > 100 µM
- TGI [7]: > 100 µM
- TGI [8]: > 100 µM
- TGI [9]: > 100 µM
- TGI [10]: > 100 µM
- TGI [11]: > 100 µM
- TGI [12]: > 100 µM
- TGI [13]: > 100 µM
- TGI [14]: > 100 µM
- TGI [15]: > 100 µM
- TGI [16]: > 100 µM
- TGI [17]: > 100 µM
- TGI [18]: > 100 µM
- TGI [19]: > 100 µM
- TGI [20]: > 100 µM
- TGI [21]: > 87.9 µM
- TGI [22]: > 100 µM
- TGI [23]: > 100 µM
- TGI [24]: > 100 µM
- TGI [25]: > 100 µM
- TGI [26]: > 100 µM
- TGI [27]: > 100 µM
- TGI [28]: > 100 µM
- TGI [29]: > 100 µM
- TGI [30]: > 100 µM
- TGI [31]: > 100 µM
- TGI [32]: > 84.7 µM
- TGI [33]: > 100 µM
- TGI [34]: > 100 µM
- TGI [35]: > 100 µM
- TGI [36]: > 100 µM
- TGI [37]: > 100 µM
- TGI [38]: > 100 µM
- TGI [39]: > 100 µM
- TGI [40]: > 100 µM
- TGI [41]: > 100 µM
- TGI [42]: > 100 µM
- TGI [43]: > 31.4 µM
- TGI [44]: > 100 µM
- TGI [45]: > 100 µM
- TGI [46]: > 100 µM
- TGI [47]: > 100 µM
- TGI [48]: > 100 µM
- TGI [49]: > 100 µM
- TGI [50]: > 100 µM
- TGI [51]: > 100 µM
- TGI [52]: > 100 µM
- TGI [53]: > 100 µM
- TGI [54]: > 100 µM
- TGI [55]: > 100 µM
- TGI [56]: > 100 µM
- TGI [57]: > 100 µM
- TGI [58]: > 100 µM

SMILES: O=c1[nH]nc(Cc2ccccc2)n1/N=C/c1cccnc1
- TGI [1]: > 100 µM
- TGI [2]: > 100 µM
- TGI [3]: > 100 µM
- TGI [4]: > 100 µM
- TGI [5]: > 100 µM
- TGI [6]: > 100 µM
- TGI [7]: > 100 µM
- TGI [8]: > 100 µM
- TGI [9]: > 100 µM
- TGI [10]: > 100 µM
- TGI [11]: > 100 µM
- TGI [12]: > 100 µM
- TGI [13]: > 100 µM
- TGI [14]: > 100 µM
- TGI [15]: > 100 µM
- TGI [16]: > 100 µM
- TGI [17]: > 100 µM
- TGI [18]: > 100 µM
- TGI [19]: > 100 µM
- TGI [20]: > 100 µM
- TGI [21]: > 100 µM
- TGI [22]: > 100 µM
- TGI [23]: > 100 µM
- TGI [25]: > 100 µM
- TGI [26]: > 100 µM
- TGI [27]: > 100 µM
- TGI [28]: > 100 µM
- TGI [29]: > 100 µM
- TGI [30]: > 100 µM
- TGI [31]: > 100 µM
- TGI [32]: > 100 µM
- TGI [33]: > 100 µM
- TGI [34]: > 100 µM
- TGI [35]: > 100 µM
- TGI [36]: > 100 µM
- TGI [37]: > 100 µM
- TGI [38]: > 100 µM
- TGI [59]: > 100 µM
- TGI [39]: > 100 µM
- TGI [40]: > 100 µM
- TGI [41]: > 100 µM
- TGI [43]: > 100 µM
- TGI [44]: > 100 µM
- TGI [45]: > 100 µM
- TGI [46]: > 100 µM
- TGI [47]: > 100 µM
- TGI [48]: > 100 µM
- TGI [49]: > 100 µM
- TGI [50]: > 100 µM
- TGI [51]: > 100 µM
- TGI [53]: > 100 µM
- TGI [54]: > 100 µM
- TGI [55]: > 100 µM
- TGI [56]: > 100 µM
- TGI [57]: > 100 µM
- TGI [58]: > 100 µM

SMILES: CCOC(=O)C(Cc1ccccc1)NC(=O)c1[nH]cnc1/N=N/N(C)C (stereo not given)
- TGI [1]: > 100 µM
- TGI [60]: > 100 µM
- TGI [2]: > 100 µM
- TGI [4]: > 100 µM
- TGI [5]: > 100 µM
- TGI [6]: > 100 µM
- TGI [7]: > 100 µM
- TGI [8]: > 100 µM
- TGI [9]: > 100 µM
- TGI [10]: > 100 µM
- TGI [11]: > 100 µM
- TGI [13]: > 100 µM
- TGI [15]: > 100 µM
- TGI [16]: > 100 µM
- TGI [17]: > 100 µM
- TGI [18]: > 100 µM
- TGI [19]: > 100 µM
- TGI [20]: > 100 µM
- TGI [21]: > 100 µM
- TGI [23]: > 100 µM
- TGI [61]: > 100 µM
- TGI [24]: > 100 µM
- TGI [26]: > 100 µM
- TGI [27]: > 100 µM
- TGI [28]: > 100 µM
- TGI [29]: > 100 µM
- TGI [31]: > 100 µM
- TGI [33]: > 100 µM
- TGI [34]: > 100 µM
- TGI [35]: > 100 µM
- TGI [38]: > 100 µM
- TGI [59]: > 100 µM
- TGI [40]: > 100 µM
- TGI [41]: > 100 µM
- TGI [42]: > 100 µM
- TGI [62]: > 100 µM
- TGI [45]: > 100 µM
- TGI [46]: > 100 µM
- TGI [47]: > 100 µM
- TGI [48]: > 100 µM
- TGI [63]: > 100 µM
- TGI [64]: > 100 µM
- TGI [50]: > 100 µM
- TGI [51]: > 100 µM
- TGI [52]: > 100 µM
- TGI [53]: > 100 µM
- TGI [54]: > 100 µM
- TGI [55]: > 100 µM
- TGI [56]: > 100 µM
- TGI [57]: > 100 µM
- TGI [58]: > 100 µM

Source: PubChem BioAssay (NCI)
